Experimental data: patent US20200345021A1, “METHOD AND SYSTEM FOR ENHANCING THE EFFICACY USING IONIZED/A[…] PEROXIDE IN REDUCING MICROBIAL POPULATIONS, METHOD OF USE THEREOF” (priority 2019, published 2020)
Values joined by “and” are separate entries in the source; they are usually repeats but may differ in a detail not shown here. Equal values may be shown once. Read-outs that look alike come from different tables or passages of the source. Marks after values point to notes of the source that are not given here.

Legend:
[1] = From the text: Specifically, a scanning mobility particle sizer (SMPS Model 3080, TSI inc., Shoreview, Minn., USA) and an aerodynamic particle sizer (APS Model 3321, TSI Inc.) were connected to the treatment chamber through an access port in the back of the treatment chamber to measure droplet sizes ranging from 2.5 to 210 nm, and from 0.5 to 20 μm, respectively.
S. Typhimurium = details: for Populations of S. Typhimurium, treated / Reductions of S. Typhimurium: with cold plasma
From the text: To minimize the risk of possible bacteria becoming airborne during treatments, attenuated and non-pathogenic bacteria were used in the study. Two strains of non-pathogenic S. Typhimurium (ATCC 53647 and 53648) and three strains of L. innocua (ATCC 33090, ATCC 51742 and ATCC BAA680) were obtained from American Type Culture Collection (ATCC) (Manassas, Va., USA). Further studies used E. coli O157:H7 (ATCC 700728), S. Typhimurium (ATCC 53647 and 53648), and L. innocua (ATCC 33090) obtained from American Type Culture Collection (ATCC) (Manassas, Va., USA) and maintained as a part of the culture collection at the USDA Eastern Regional Research Center (Wyndmoor, Pa. USA). The bacteria were made to be resistant to nalidixic acid by successive growth in Trypic Soy Broth (TSB) (Difco, Sparks, Md., USA) with increasing nalidixic acid concentrations. All strains were stored at −80° C. in 1 mL of TSB containing 10% glycerol. Working cultures of S. Typhimurium and L. innocua were maintained in 9 mL TSB (supplemented with 100 μg/mL nalidixic acid for S. Typhimurium) at 4° C. after incubating at 37° C. for […], respectively, and sub-cultured each time.
Each strain of S. Typhimurium and L. innocua was cultured in 9 mL TSB (supplemented with 100 μg/mL nalidixic acid for S. Typhimurium) and incubated at 37° C. for 40 h and 48 h, respectively, harvested by centrifugation at 4000×g for 10 min at 4° C., and resuspended in 9 mL sterile Buffered Peptone Water (BPW; Difco). The pellets were resuspended in BPW to form cell suspensions with a final concentration of 108˜10^9 CFU/mL. Subsequently, suspended pellets of two strains of Salmonella and three strains of L. innocua were combined to obtain two separate culture cocktails.
Grape tomatoes, granny smith apples, romaine lettuce and cantaloupes were purchased from local markets (Philadelphia, Pa., USA) and kept at 10° C. prior to use. Fruits and vegetables were removed from 10° C. refrigeration and equilibrated to ambient temperature before being inoculated. Romaine lettuce was divided into upper green leaf and midrib tissues. Six tomatoes, six pieces (2×2 cm) of apple skins, five pieces (3×3 cm) of Romaine lettuce upper leaves, five pieces (3 cm length) of Romaine lettuce midrib area and six pieces (2×2 cm) of cantaloupe rinds with 2×3 mm thickness of flesh were used for each treatment per replicate. Bach piece w as spot inoculated with 10 μL of Salmonella and L. innocua by depositing droplets with a micropipette. The inoculated samples were dried in a bio-hood for 1 h (for tomato surfaces, romaine lettuce, apple skins and cantaloupe rinds) or 2 h (for tomato stem scars) at ambient temperature.
Produce items were placed onto a sterile test tube rack with the inoculated area facing up and the rack with produce pieces were placed inside of a treatment chamber (12×12×24 inch).
For tomato surfaces and apple skins, the treatment times (spray times) were set as 5, 8 and 10 s followed by 30 min dwell time. For upper leaves and midrib tissues of Romaine lettuce, the treatment times were 10, 20, 30 and 60 s followed by 30 min dwell time. For cantaloupe rinds, the treatment times were set as 10, 30 and 60 s followed by 30 min dwell time. For tomato stem scars, the treatment procedure included 5.8, 10, 20, 30, 60 s followed by 30 min dwell time, 6 cycles composed of 10 s treatment time followed by 10 min dwell time per cycle, and 3 cycles composed of 20 s treatment time followed by 20 min dwell time per cycle. A fan (E.Z.FAN, FP-108-1, Common Wealth Industrial Corp., Taiwan) was used in the chamber to facilitate the uniform distribution of mist during dwell time.
After each treatment, the tomato stem scars and surfaces with the inoculated bacteria were removed using a pair of sterile scissors.

[2] = treatment chamber, immediately after introduction
[3] = Granny Smith apple skins, treatment time 5 s + 30 min dwell
[4] = Romaine lettuce leaves (upper leaf), treatment time 10 s + 30 min dwell
[5] = Romaine lettuce leaves (upper leaf), treatment time 20 s + 30 min dwell
[6] = Romaine lettuce leaves (upper leaf), treatment time 60 s + 30 min dwell
[7] = Romaine lettuce midrib area, treatment time 10 s + 30 min dwell
[8] = Romaine lettuce midrib area, treatment time 20 s + 30 min dwell
[9] = Romaine lettuce midrib area, treatment time 60 s + 30 min dwell
[10] = cantaloupe rinds, treatment time 10 s + 30 min dwell
[11] = cantaloupe rinds, treatment time 60 s + 30 min dwell
[12] = grape tomato stem scars, 10s × 6 (6 cycles of 10 s spray time followed by 10 min dwell time)
[13] = grape tomato stem scars, treatment time 8 s + 30 min dwell
[14] = grape tomato stem scars, treatment time 10 s + 30 min dwell
[15] = grape tomato stem scars, treatment time 20 s + 30 min dwell
[16] = grape tomato stem scars, treatment time 30 s + 30 min dwell
[17] = grape tomato surfaces, treatment time 5 s + 30 min dwell

OO [H2O2, hydrogen peroxide]
Nanosize droplets remained in the treatment chamber ([1]; after 30 min (end of treatment)): about 8%
Share of droplets in the range of <5 μm ([1]; micrometer range, immediately after introduction): About 80%
Mean diameter of droplets in the micrometer range [1, 2]: 3.0 μm
Mean diameter of nanosize droplets [1, 2]: 40.3 nm
Mode (peak) of nanosize droplets [1, 2]: 33.4 nm
Mode of droplets in the micrometer range [1, 2]: 4.0 μm
Total number of droplets in micrometer range (0.5-20 μm) [1, 2]: 4390 #/cc
Total number of droplets in the nanosize range [1, 2]: 84,000 #/cc
Populations of S. Typhimurium, treated (S. Typhimurium; [3]): 4.09 ± 0.13^a log CFU/piece
Reductions of S. Typhimurium (S. Typhimurium; [3]): 1.63 ± 0.35^b log CFU/piece
Populations of S. Typhimurium, treated (S. Typhimurium; Granny Smith apple skins, treatment time 8 s + 30 min dwell, ND: not detectable (detection limit 0.70 log CFU/piece)): < 0.70 log CFU/piece
Reductions of S. Typhimurium (S. Typhimurium; Granny Smith apple skins, treatment time 8 s + 30 min dwell, listed as hydrogen peroxide (H2O2) with cold plasma): more than 5 log CFU/piece
Reductions of S. Typhimurium (S. Typhimurium; Granny Smith apple skins, treatment time 8 s + 30 min dwell, listed as ionized hydrogen peroxide): > 5 log CFU/piece
Populations of S. Typhimurium, treated (S. Typhimurium; [4]): 5.45 ± 0.34^a log CFU/piece
Reductions of S. Typhimurium (S. Typhimurium; [4]): 0.79 ± 0.16^c log CFU/piece
Populations of S. Typhimurium, treated (S. Typhimurium; [5]): 3.98 ± 0.37^b log CFU/piece
Reductions of S. Typhimurium (S. Typhimurium; [5]): 1.98 ± 0.24^b log CFU/piece
Populations of S. Typhimurium, treated (S. Typhimurium; Romaine lettuce leaves (upper leaf), treatment time 30 s + 30 min dwell): 3.54 ± 0.11^b log CFU/piece
Reductions of S. Typhimurium (S. Typhimurium; Romaine lettuce leaves (upper leaf), treatment time 30 s + 30 min dwell, listed as ionized hydrogen peroxide): 2.86 log CFU/piece and 2.86 ± 0.17^a log CFU/piece
Populations of S. Typhimurium, treated (S. Typhimurium; [6]): 3.57 ± 0.25^b log CFU/piece
Reductions of S. Typhimurium (S. Typhimurium; [6]): 2.79 ± 0.20^a log CFU/piece
Populations of S. Typhimurium, treated (S. Typhimurium; [7]): 4.81 ± 0.22^a log CFU/piece
Reductions of S. Typhimurium (S. Typhimurium; [7]): 1.53 ± 0.23^c log CFU/piece
Populations of S. Typhimurium, treated (S. Typhimurium; [8]): 4.09 ± 0.25^b log CFU/piece
Reductions of S. Typhimurium (S. Typhimurium; [8]): 2.04 ± 0.33^b log CFU/piece
Populations of S. Typhimurium, treated (S. Typhimurium; Romaine lettuce midrib area, treatment time 30 s + 30 min dwell): 2.54 ± 0.32^c log CFU/piece
Reductions of S. Typhimurium (S. Typhimurium; Romaine lettuce midrib area, treatment time 30 s + 30 min dwell, listed as ionized hydrogen peroxide): 3.63 log CFU/piece and 3.63 ± 0.21^a log CFU/piece
Populations of S. Typhimurium, treated (S. Typhimurium; [9]): 2.94 ± 0.18^c log CFU/piece
Reductions of S. Typhimurium (S. Typhimurium; [9]): 3.13 ± 0.48^a log CFU/piece
Populations of S. Typhimurium, treated (S. Typhimurium; [10]): 4.39 ± 0.32^a log CFU/piece
Reductions of S. Typhimurium (S. Typhimurium; [10]): 1.50 ± 0.21^b log CFU/piece
Populations of S. Typhimurium, treated (S. Typhimurium; cantaloupe rinds, treatment time 30 s + 30 min dwell): 4.09 ± 0.24^a log CFU/piece
Reductions of S. Typhimurium (S. Typhimurium; cantaloupe rinds, treatment time 30 s + 30 min dwell, listed as ionized hydrogen peroxide): 2.48 log CFU/piece and 2.48 ± 0.68^a log CFU/piece
Populations of S. Typhimurium, treated (S. Typhimurium; [11]): 3.23 ± 0.28^b log CFU/piece
Reductions of S. Typhimurium (S. Typhimurium; [11]): 2.44 ± 0.32^a log CFU/piece
Populations of S. Typhimurium, treated (S. Typhimurium; [12]): 3.89 ± 0.39^ab log CFU/piece
Reductions of S. Typhimurium (S. Typhimurium; [12]): 2.19 ± 0.41^b log CFU/piece
Populations of S. Typhimurium, treated (S. Typhimurium; grape tomato stem scars, listed as printed 20s × 6 (title: 20s×3, 3 cycles of 20 s spray time with 20 min dwell time)): 3.60 ± 0.42^b log CFU/piece
Reductions of S. Typhimurium (S. Typhimurium; grape tomato stem scars, listed as printed 20s × 6 (title: 20s×3, 3 cycles of 20 s spray time with 20 min dwell time), listed as ionized hydrogen peroxide): 2.73 log CFU/piece and 2.73 ± 0.28^a log CFU/piece
Populations of S. Typhimurium, treated (S. Typhimurium; grape tomato stem scars, treatment time 5 s + 30 min dwell): 4.26 ± 0.89^ab log CFU/piece
Reductions of S. Typhimurium (S. Typhimurium; grape tomato stem scars, treatment time 5 s + 30 min dwell, listed as ionized hydrogen peroxide): 1.06 log CFU/piece and 1.06 ± 0.35^d log CFU/piece
Populations of S. Typhimurium, treated (S. Typhimurium; [13]): 4.23 ± 0.31^ab log CFU/piece
Reductions of S. Typhimurium (S. Typhimurium; [13]): 1.22 ± 0.28^d log CFU/piece
Populations of S. Typhimurium, treated (S. Typhimurium; [14]): 4.26 ± 0.71^ab log CFU/piece
Reductions of S. Typhimurium (S. Typhimurium; [14]): 1.20 ± 0.14^d log CFU/piece
Populations of S. Typhimurium, treated (S. Typhimurium; [15]): 4.71 ± 0.26^ab log CFU/piece
Reductions of S. Typhimurium (S. Typhimurium; [15]): 1.51 ± 0.34^cd log CFU/piece
Populations of S. Typhimurium, treated (S. Typhimurium; [16]): 4.31 ± 0.20^a log CFU/piece
Reductions of S. Typhimurium (S. Typhimurium; [16]): 1.85 ± 0.11^bc log CFU/piece
Populations of S. Typhimurium, treated (S. Typhimurium; grape tomato stem scars, treatment time 60 s + 30 min dwell): 3.85 ± 0.66^ab log CFU/piece
Reductions of S. Typhimurium (S. Typhimurium; grape tomato stem scars, treatment time 60 s + 30 min dwell, listed as ionized hydrogen peroxide): 2.16 log CFU/piece and 2.16 ± 0.43^b log CFU/piece
Populations of S. Typhimurium, treated (S. Typhimurium; [17]): 4.44 ± 0.25^a log CFU/piece
Reductions of S. Typhimurium (S. Typhimurium; [17]): 1.84 ± 0.43^b log CFU/piece
Populations of S. Typhimurium, treated (S. Typhimurium; grape tomato surfaces, treatment time 8 s + 30 min dwell, ND: not detectable (detection limit 0.70 log CFU/piece)): < 0.70 log CFU/piece
Reductions of S. Typhimurium (S. Typhimurium; grape tomato surfaces, treatment time 8 s + 30 min dwell, listed as hydrogen peroxide (H2O2) with cold plasma): more than 5 log CFU/piece
Reductions of S. Typhimurium (S. Typhimurium; grape tomato surfaces, treatment time 8 s + 30 min dwell, listed as ionized hydrogen peroxide): > 5 log CFU/piece
Reductions of S. Typhimurium (S. Typhimurium; grape tomato surfaces, treatment time 10 s + 30 min dwell): 5.65 ± 0.21^a log CFU/piece
log reduction of Salmonella on other fresh produce items (S. Typhimurium; produce other than smooth surfaces of tomatoes and apples, applied for a longer time period): ≤ 3.6 log
log reductions of Salmonella on rough surfaces (S. Typhimurium; rough surfaces (tomato stem scars, cantaloupe rinds), similar treatment times): 2.8-3.6 log
log reductions of Salmonella on smooth surfaces (S. Typhimurium; smooth surfaces (apples, tomatoes), 8-10 s treatment time + 30 min dwell time): greater than 5 log
